According to ChEMBL document CHEMBL1133825, “3-D-QSAR/CoMFA and recognition models of benzimidazole derivatives at the 5-HT(4) receptor” (Bioorg Med Chem Lett, 2001):

Tests used:
[1] = target: T1, 5-hydroxytryptamine receptor 4 (Rattus norvegicus, UniProt Q62758); test: In vitro binding affinity to 5-hydroxytryptamine 4 receptor in rat striatum membrane; type: cell membranes
[2] = target: T1, 5-hydroxytryptamine receptor 4; test: pKi against 5-hydroxytryptamine 4 receptor in rat striatum membrane; type: cell membranes

T1 sequence (Q62758 whole entry): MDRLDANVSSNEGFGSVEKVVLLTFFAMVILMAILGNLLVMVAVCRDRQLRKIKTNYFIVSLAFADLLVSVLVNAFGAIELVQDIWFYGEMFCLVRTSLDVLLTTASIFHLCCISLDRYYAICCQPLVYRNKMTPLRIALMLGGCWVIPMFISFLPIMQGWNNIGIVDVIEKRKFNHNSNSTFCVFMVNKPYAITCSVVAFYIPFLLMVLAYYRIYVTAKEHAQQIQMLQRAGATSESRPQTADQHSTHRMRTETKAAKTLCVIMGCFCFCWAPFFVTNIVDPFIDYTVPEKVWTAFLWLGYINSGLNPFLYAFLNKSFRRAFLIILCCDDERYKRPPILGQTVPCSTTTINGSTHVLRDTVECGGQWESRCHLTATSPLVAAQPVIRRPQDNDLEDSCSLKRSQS

Row | Ki [1] [µM] | Ki [2] [µM] | Compound
1 | 0.00029 | 0.000288 | CC(C)CN1CCC(CNC(=O)c2cc(Cl)cc3[nH]cnc23)CC1
2 | > 10 | > 10 | CN1CCC(OC(=O)c2cccc3nc[nH]c23)CC1
3 | 0.0692 | 0.0692 | CC(C)CN1CCC(CNC(=O)c2cc(Cl)cc3c2ncn3Cc2ccccc2)CC1
4 | 0.0029 | 0.00288 | CCCCN1CCC(COC(=O)c2cc(Cl)cc3[nH]cnc23)CC1
5 | 0.0278 | 0.0275 | CCCCN1CCC(CNC(=O)c2cc(Br)c(N)c3nc[nH]c23)CC1
6 | 0.0114 | 0.0115 | CS(=O)(=O)NCCN1CCC(CNC(=O)c2cccc3[nH]cnc23)CC1
7 | 0.00011 | 0.00011 | CS(=O)(=O)NCCN1CCC(CNC(=O)c2cc(Cl)cc3[nH]cnc23)CC1
8 | 0.0482 | 0.0479 | CCCCN1CCC(CNC(=O)c2cc(Br)c([N+](=O)[O-])c3[nH]cnc23)CC1
9 | > 1 | > 1 | CCN1CCC(NC(=O)c2cccc3[nH]cnc23)CC1
10 | > 1 | > 1 | CCCN1CCC(NC(=O)c2cccc3nc[nH]c23)CC1
11 | 0.0261 | 0.0263 | CS(=O)(=O)NCCN1CCC(COC(=O)c2cccc3nc[nH]c23)CC1
12 | 0.29 | 0.288 | CCCCN1CCC(NC(=O)c2cccc3nc[nH]c23)CC1
13 | 0.0246 | 0.0245 | CCCCN1CCC(COC(=O)c2cccc3nc[nH]c23)CC1
14 | 0.0023 | 0.00229 | CS(=O)(=O)NCCN1CCC(COC(=O)c2cc(Cl)cc3[nH]cnc23)CC1
15 | 0.00032 | 0.000324 | CCCCN1CCC(CNC(=O)c2cc(Cl)cc3[nH]cnc23)CC1
16 | 0.00064 | 0.000646 | CCCCN1CCC(CNC(=O)c2cc(Br)cc3[nH]cnc23)CC1
17 | 0.115 | 0.115 | CCCCN1CCC(CNC(=O)c2ccc(N)c3[nH]cnc23)CC1
18 | 0.0224 | 0.0224 | CCCCN1CCC(CNC(=O)c2cc(Cl)c(N)c3[nH]cnc23)CC1
19 | 0.0022 | 0.00219 | CC(C)CN1CCC(CNC(=O)c2cc(Cl)cc3c2ncn3C)CC1
20 | 0.00054 | 0.000537 | CCCCCN1CCC(CNC(=O)c2cc(Cl)cc3[nH]cnc23)CC1
21 | 0.0446 | 0.0447 | CCCCN1CCC(CNC(=O)c2cc(Cl)c([N+](=O)[O-])c3nc[nH]c23)CC1
22 | 0.0137 | 0.0138 | CCCCN1CCC(CNC(=O)c2cccc3[nH]cnc23)CC1
